Results on one compound are retold here after patent publication US20240140949A1, “ANTI-CANCER PHARMACEUTICAL COMPOSITION FOR TARGETING HEAT SHOCK PROTEIN 70, CONTAINING INDOLOQUINAZOLIDINE ALKALOID” (SEOUL NATIONAL UNIVERSITY R & DB FOUNDATION, priority 2021, published 2024).

One assay has as its system H1299 lung cancer cells. In words: Cell viability (MTT assay) in H1299 cells. As to conditions: 100 nM, 3 days, MTT, compared with evodiamine and EV501-EV509 (FIG. 1). Format: cell-based, human. The text has this:
Human lung cancer cell lines (H1299, H460, A549, H226B, and PC9), breast cancer cell line (MDA-MB-231), liver cancer cell line (Hep3B), kidney cancer cell line (786-0), prostate cancer cell lines (DU145 and PC-3), and mouse lung cancer cell line (Lewis Lung Carcinoma, LLC) were purchased from ATCC (American Type Culture Collection) or obtained from Dr. John V. Heymach of MD Anderson Cancer Center, USA. The human head and neck cancer cell line (UMSCC38) was obtained from Dr. Jeffrey N. Myers (MD Anderson Cancer Center, USA). Human colon cancer cell lines (HCT116 and HT-29) and glioblastoma cell line (U87MG) were obtained from Professor Sang Kook Lee (Seoul National University College of Pharmacy). The human kidney cancer cell line (Caki-1), and gastric cancer cell line (SNU-638) were purchased from the Korean Cell Line Bank. The chemotherapy-resistant cells [paclitaxel-resistant H460 cells (H460/PcR), paclitaxel-resistant H226B cells (H226B/PcR), cisplatin-resistant H1299 cells (H1299/CsR), pemetrexed-resistant H1299 cells (H1299/PmR)] and molecularly targeted anticancer therapy-resistant cells [erlotinib-resistant PC9 cells (PC9/ER)] were constructed by treating the respective anti-cancer drugs for more than three months. H1299, H460, H226B, PC9, Hep3B, 786-0, DU145, PC-3, HCT116, HT-29, SNU-638, chemotherapeutic resistant cells, and molecularly targeted anticancer therapy-resistant cells were cultured in RPMI 1640 media containing 10% fetal bovine serum (FBS) and antibiotics at 37° C. under 5% CO2 conditions, while MDA-MB-231, UMSCC38, U87MG, Caki-1 were cultured in DMEM media containing 10% FBS and antibiotics at 37° C. under 5% CO2 conditions. Cells were passaged 1-2 times per week.
(§1) The cancer cell lines were seeded in a 96-well plate at a density of 2×10^3 cells per well and cultured for 24 hours to allow the cells to attach. The cells were then treated with diluted drugs in media for 3 days and cell viability was assessed using MTT assay or crystal violet (CB) assay. For the MTT assay, MTT solution dissolved in PBS was added to achieve a final concentration of 500 μg/mL and incubated for 2-4 hours, after which the medium was removed and the formed formazan was dissolved in 100% DMSO, followed by measuring the absorbance at 570 nm. For the CB assay, the cultured cells were fixed with 100% methanol, stained with a 0.025% crystal violet solution, dissolved in 1% SDS solution, and the absorbance was measured at 570 nm. Cell viability was calculated as the percentage of absorbance change in drug-treated group compared to vehicle (DMSO) treated control group.
Background: Formazan colour is commonly taken as a measure of viable cells.

Assay [1] concerns cancer cells derived from various origins. Put plainly: Cell viability (MTT or crystal violet assay) in cancer cell lines of various origins. Format: cell-based, human. As to conditions: various concentrations, 3 days, cancer cells of various origins (FIG. 2).
From the text: Human lung cancer cell lines (H1299, H460, A549, H226B, and PC9), breast cancer cell line (MDA-MB-231), liver cancer cell line (Hep3B), kidney cancer cell line (786-0), prostate cancer cell lines (DU145 and PC-3), and mouse lung cancer cell line (Lewis Lung Carcinoma, LLC) were purchased from ATCC (American Type Culture Collection) or obtained from Dr. John V. Heymach of MD Anderson Cancer Center, USA. The human head and neck cancer cell line (UMSCC38) was obtained from Dr. Jeffrey N. Myers (MD Anderson Cancer Center, USA). […]
as §1, with “Cell viability was calculated as the percentage of absorbance change in drug-treated group compared to vehicle (DMSO) treated control group.” left out

The test system of the next assay is LLC-Luc tumors. Put plainly: Survival in LLC-Luc transplant allograft (lung metastasis) model. Format: in vivo, mouse. As to conditions: C57BL/6 mice, 20 mg/kg orally six times a week (FIG. 8). Here is the method:
(§2) H460 cells (5×10^6 cells/spot) or lung cancer patient-derived tumors were implanted into the flank of 6-week-old NOD/SCID mice, or LLC-Luc cells (5×10^5 cells/spot) were implanted into the flank of 8-week-old C57BL/6 mice to form tumors. When the tumor volume reached 50-100 mm^3, the mice were divided into control and experimental groups (with at least 6 mice assigned to each group), and the control group was administered with vehicle (10% DMSO and 40% PEG400 solution prepared in sterile distilled water), while the experimental group was administered with EV507 (20 mg/kg) six times a week orally. The major and minor axes of the tumor were measured, and the tumor size was measured at least 3-4 times a week, and the body weight was measured at least once a week to evaluate the toxicity of the drug. Also, the survival of C57BL/6 mice implanted with LLC-Luc cells was monitored to determine the survival curve. The tumor volume was calculated as (width)^2× length×0.5.
Moreover, it is known that in the LLC-Luc transplant allograft model that spontaneously generates pulmonary metastatic cancer, mouse mortality occurs due to the proliferation of transplanted LLC-Luc tumors and the formation of pulmonary metastatic cancer. In this allograft model, EV507 was administered to confirm its inhibitory effect on mouse mortality caused by tumor proliferation.

The test system of assay [2] is tumors derived from lung cancer patients. Put plainly: Lung cancer patient-derived tumor xenograft growth in NOD/SCID mice. Type of assay: in vivo, mouse. As to conditions: 20 mg/kg orally six times a week, vs control group (FIG. 7). As for the experimental part:
as §2
Background: In xenograft studies the graft and the host belong to different species.

In assay [3] the target is T1, Hsp70 protein (full length, N-terminal domain) (Homo sapiens, UniProt P0DMV8).
T1 construct: 35 μg of Hsp70 full length, Hsp70 N-terminal, Hsp70 C-terminal proteins were treated with vehicle (DMSO)
T1 sequence (P0DMV8 2-641): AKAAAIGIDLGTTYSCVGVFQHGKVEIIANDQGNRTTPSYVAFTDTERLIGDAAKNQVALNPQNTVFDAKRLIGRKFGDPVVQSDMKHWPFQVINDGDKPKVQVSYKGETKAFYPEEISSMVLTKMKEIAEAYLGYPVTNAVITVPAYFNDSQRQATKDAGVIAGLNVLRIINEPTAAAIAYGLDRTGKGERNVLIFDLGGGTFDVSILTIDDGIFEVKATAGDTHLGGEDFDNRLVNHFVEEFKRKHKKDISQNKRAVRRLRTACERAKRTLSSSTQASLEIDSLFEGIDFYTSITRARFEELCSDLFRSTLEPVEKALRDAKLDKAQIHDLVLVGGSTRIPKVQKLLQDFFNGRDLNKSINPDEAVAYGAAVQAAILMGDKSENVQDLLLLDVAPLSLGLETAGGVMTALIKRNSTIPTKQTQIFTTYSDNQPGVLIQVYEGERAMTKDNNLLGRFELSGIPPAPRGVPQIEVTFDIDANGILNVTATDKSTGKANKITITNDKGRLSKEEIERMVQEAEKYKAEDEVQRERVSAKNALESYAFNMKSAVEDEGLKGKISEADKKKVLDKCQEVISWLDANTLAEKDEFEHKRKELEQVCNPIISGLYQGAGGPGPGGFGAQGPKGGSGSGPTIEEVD
In words: Drug affinity responsive target stability (DARTS). Type of assay: binding. Conditions: up to 10 μM, proteinase K (FIG. 6). Here is the method:
35 μg of Hsp70 full length, Hsp70 N-terminal, Hsp70 C-terminal proteins were treated with vehicle (DMSO) or up to 10 μM of EV507 (final DMSO concentration: 1%) at 4° C. for 30 minutes, followed by a treatment with proteinase K (proteinase K:protein=1:100) at room temperature for 15 minutes. The reaction was terminated by adding a 5×SDS-PAGE sample buffer and boiling at 95° C. for 5 minutes, after which electrophoresis was performed with 8% SDS-PAGE. The proteins were transferred to a PVDF membrane, and the Western blot analysis method described above was performed.

A further assay concerns H460 xenograft tumors. In words: H460 xenograft tumor growth in NOD/SCID mice. As to conditions: 20 mg/kg orally six times a week, vs control group (FIG. 7). Format: in vivo, mouse. As for the experimental part: as §2

The structures appear in SMILES notation.

Turning to `C=CCN1c2ccccc2C(=O)N2CCc3c([nH]c4ccc(O)cc34)C21` (stereo not drawn) [EV507], the “inhibition of cancer cell survival (cell viability)” value with H1299 lung cancer cells was “most excellent efficacy”. Further, the “anti-cancer survival inhibition efficacy” value in assay [1] is given as “concentration-dependent anti-cancer survival inhibition efficacy”. The mouse mortality entry in the assay with LLC-Luc tumors was “significantly reduced”. Further, the tumor growth result (in assay [2]; in the assay with H460 xenograft tumors) was “significantly inhibited” in each case. In addition, the “binding to Hsp70 protein, particularly the N-terminal domain” value in assay [3] is on record as “binds”.
